Laboratory results: PubChem BioAssay AID1963871 (Molecular Pharmacology Branch, DTP, NCI, 2024)
Values joined by “and” are separate entries in the source; they are usually repeats but may differ in a detail not shown here. Equal entries are not always repeated.

System: KRAS-mutant PDC multicell tumor spheroid viability
Assay: Anticancer human tumor 521955-158-R2-J5-PDC patient-derived pancreatic carcinoma cell line growth inhibition [KRAS2]
Conditions: for viability, T/C: stronger effect = lower value
Description: Multicellular complex tumor spheroid response to RAS pathway inhibitors in combination with a targeted agents in patient-derived cell lines with oncogenic KRAS variants from multiple cancer types
A high-throughput screen of multi-cell type tumor spheroids was designed to identify active combinations of targeted small molecules and KRAS pathway inhibitors. Complex spheroids include a stromal component modeled by human endothelial cells (HUVEC) and fibroblasts modeled by human mesenchymal stem cells (MSCs). The concentration ranges selected for each drug and investigational agent were based upon clinically achievable concentrations if the clinical Cmax of the agent was known.
Compounds. The drugs and investigational agents: BI-3406 (NSC825286), BAY-293 (NSC824723), batoprotafib (TNO155; NSC825523), sotorasib (AMG 510; NSC818433), MRTX1257 (NSC819558), elimusertib (BAY 1895344; NSC800525), molibresib (GSK525762; NSC774829), temuterkib (LY3214996; NSC803410), venetoclax (NSC766270), alisertib (NSC759677), olaparib (NSC753686), talazoparib (NSC767125), erdafitinib (NSC781556), ipatasertib (NSC767898), cabozantinib (NSC761068), nintedanib (NSC756659), abemaciclib (NSC768073), docetaxel (NSC628503), trametinib (NSC758246), and sapanisertib (NSC764658) were obtained from the National Cancer Institute (NCI) Developmental Therapeutics Program Chemical Repository. The FDA-approved anticancer drug set is available from the Developmental Therapeutics Program. […] The stock solutions were prepared in dimethyl sulfoxide (DMSO, Sigma-Aldrich, St. Louis, MO, cat. D2650) at 800-fold the tested concentration and stored at -70 degrees C prior to their use. All drugs and investigational agents were tested over a range starting from a high concentration at or near the clinical Cmax and decreasing in half-log increments. If the clinical Cmax for an agent had not been determined, the highest concentration tested was 10 microM.
Cell Culture. All cells were maintained in an incubator at 37 degrees C and 5% CO2 with 95% humidity. The PDC lines were cultured according to standard operating procedures established by the NCI PDMR (https://pdmr.cancer.gov/sops/default.htm). Briefly, all PDCs were thawed and cultured in Matrigel-coated flasks prepared with a working solution of 1X Ham's F-12 nutrient mix, without supplementation (Invitrogen, Waltham, MA, cat. 11765054), 100 U/mL penicillin-streptomycin (Invitrogen, cat. 15140122), and 2.5% Matrigel (Corning Inc., Corning, NY, cat. 354248) for the first three passages. All PDCs were cultured in complete DMEM/F-12 media containing advanced DMEM/F-12 (Invitrogen, cat. 12634028), 4.9% defined fetal bovine serum, heat inactivated (HyClone Laboratories Inc., Logan, UT, cat. SH30070.03HI), 389 ng/mL hydrocortisone (Sigma-Aldrich, cat. H4001), 9.7 ng/mL human EGF recombinant protein (Invitrogen, cat. PHG0313), 23.4 microg/mL adenine (Sigma-Aldrich, cat. A2786), 97.3 U/mL penicillin-streptomycin (Invitrogen, cat. 15140122), 1.9 mM L-glutamine (Invitrogen, cat. 25030081), and 9.7 microM Y-27632 dihydrochloride (Tocris Bioscience, Bristol, United Kingdom, cat. 1254). The PDCs were cultured in complete DMEM/F12 media without 9.7 microM Y-27632 dihydrochloride for at least two passages prior to the screen. The established cell line HOP-62 was cultured in RPMI 1640 medium, HEPES (Invitrogen, cat. 22400105) with 10% defined fetal bovine serum (HyClone Laboratories Inc., cat. SH30070.03) and 2 mM L-glutamine (Invitrogen, cat. 25030081). The pooled donor HUVEC were cultured in endothelial cell growth medium 2 (PromoCell, Heidelberg, Germany, cat. C-22011) and the hMSC were cultured in mesenchymal stem cell growth medium 2 (PromoCell, cat. C-28009). For all experiments, HUVEC and hMSC were used at passages </=5, while the malignant cell lines were used at passages </=15. […]

[1] = compound alone, run of 08/26/2021
[2] = compound alone, run of 09/02/2021
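Also: viability read after seven days of drug exposure.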

SMILES | viability, T/C (compound 0.1 µM) | viability, T/C (compound 10 µM) | IC50 (compound alone, run of 08/19/2021) [µM] | IC50 [1] | IC50 [2] | viability, T/C (compound 0.0001 µM) | viability, T/C (compound 0.000316 µM) | viability, T/C (compound 0.001 µM) | viability, T/C (compound 0.00316 µM) | viability, T/C (compound 0.01 µM) | viability, T/C (compound 0.0316 µM) | IC50 (curve of compound) | viability, T/C (compound 0.316 µM) | viability, T/C (compound 1 µM) | viability, T/C (compound 3.16 µM)
C=CC(=O)N1CCN(c2nc(=O)n(-c3c(C)ccnc3C(C)C)c3nc(-c4c(O)cccc4F)c(F)cc23)C(C)C1 (stereo not given) | 105% [middle of 17 runs] | 66.7% [middle of 17 runs] | > 10 | > 10 µM | > 10 µM | – | – | – | – | – | – | – | – | – | –
CC(=O)Nc1cccc(-n2c(=O)n(C3CC3)c(=O)c3c(Nc4ccc(I)cc4F)n(C)c(=O)c(C)c32)c1 | – | – | – | – | – | 77.7% [middle of 5 runs] | 47.2% [middle of 5 runs] | 36.5% [middle of 5 runs] | 29.1% [middle of 5 runs] | 24.1% [middle of 5 runs] | 17.4% [middle of 4 runs] | 0.337 nM [middle of 5 runs] | – | – | –
CC(=O)OC12COC1CC(O)C1(C)C(=O)C(O)C3=C(C)C(OC(=O)C(O)C(NC(=O)OC(C)(C)C)c4ccccc4)CC(O)(C(OC(=O)c4ccccc4)C21)C3(C)C (stereo not given) | 14.2% [middle of 5 runs] | – | – | – | – | – | – | – | – | 22.3% [middle of 5 runs] | 15.3% [middle of 5 runs] | < 0.01 µM | 15.2% [middle of 5 runs] | 18.1% [middle of 5 runs] | 21.9% [middle of 5 runs]
CC(C)NCC(C(=O)N1CCN(c2ncnc3c2C(C)CC3O)CC1)c1ccc(Cl)cc1 (stereo not given) | 102% [middle of 5 runs] | 66.7% [middle of 5 runs] | – | – | – | – | – | – | – | – | 100% [middle of 5 runs] | > 10 µM | 83.8% [middle of 5 runs] | 80.8% [middle of 5 runs] | 84.4% [middle of 5 runs]
CC(C)n1nc(-c2ccc3oc(N)nc3c2)c2c(N)ncnc21 | 25.9% [middle of 5 runs] | – | – | – | – | – | 101% [middle of 5 runs] | 87.6% [middle of 5 runs] | 66.9% [middle of 5 runs] | 48.9% [middle of 5 runs] | 35.8% [middle of 5 runs] | 9.42 nM [middle of 5 runs] | – | – | –
CC1(C)CCC(CN2CCN(c3ccc(C(=O)NS(=O)(=O)c4ccc(NCC5CCOCC5)c([N+](=O)[O-])c4)c(Oc4cnc5[nH]ccc5c4)c3)CC2)=C(c2ccc(Cl)cc2)C1 | 104% [middle of 5 runs] | – | – | – | – | – | – | – | – | – | 99.7% [middle of 5 runs] | 6.08 µM [middle of 5 runs] | 105% [middle of 5 runs] | 111% [middle of 5 runs] | –
CC1COCCN1c1cc(-c2ccnn2C)c2ccnc(-c3ccn[nH]3)c2n1 (stereo not given) | 12.3% [middle of 5 runs] | – | – | – | – | – | – | – | – | 97.7% [middle of 5 runs] | – | 34.4 nM [middle of 5 runs] | 13.6% [middle of 5 runs] | 21.9% [middle of 5 runs] | 25.1% [middle of 5 runs]
CC1OCC2(CCN(c3cnc(Sc4ccnc(N)c4Cl)c(N)n3)CC2)C1N (stereo not given) | – | – | – | – | > 10 µM and 4.03 µM | – | – | – | – | – | 84.3% and 94% and 83.1% | > 10 µM | – | – | –
CCN1CCN(Cc2ccc(Nc3ncc(F)c(-c4cc(F)c5nc(C)n(C(C)C)c5c4)n3)nc2)CC1 | 90.7% [middle of 5 runs] | – | – | – | – | – | – | – | 99% [middle of 5 runs] | 98.1% [middle of 5 runs] | 87.7% [middle of 5 runs] | > 1 µM | 99.1% [middle of 5 runs] | 87.5% [middle of 5 runs] | –
CCNC(=O)CC1N=C(c2ccc(Cl)cc2)c2cc(OC)ccc2-n2c(C)nnc21 (stereo not given) | 92.1% [middle of 5 runs] | 34.2% [middle of 5 runs] | – | – | – | – | – | – | – | – | 98.9% [middle of 5 runs] | 692 nM [middle of 5 runs] | 63% [middle of 5 runs] | 45% [middle of 5 runs] | 37.6% [middle of 5 runs]
CN(C)C/C=C/C(=O)Nc1cc2c(Nc3ccc(F)c(Cl)c3)ncnc2cc1O[C@H]1CCOC1 | – | – | – | – | – | – | 105% [middle of 5 runs] | 98.6% [middle of 5 runs] | 96.5% [middle of 5 runs] | 92.4% [middle of 5 runs] | 87.8% [middle of 5 runs] | > 0.1 µM | – | – | –
CNCc1ccccc1-c1csc(C(C)Nc2nc(C)nc3cc(OC)c(OC)cc23)c1 (stereo not given) | 93.3% [middle of 17 runs] | 0.16% [middle of 15 runs] | – | 1.68 µM [middle of 5 runs] | 1.82 µM [middle of 6 runs] | – | – | – | – | – | – | – | 93.4% [middle of 17 runs] | – | –
COC(=O)c1ccc2c(C(=Nc3ccc(N(C)C(=O)CN4CCN(C)CC4)cc3)c3ccccc3)c(O)[nH]c2c1 | 105% [middle of 5 runs] | 0.29% [middle of 5 runs] | – | – | – | – | – | – | – | – | 102% [middle of 5 runs] | 2.06 µM [middle of 5 runs] | – | – | –
COc1cc(Nc2ncc3c(n2)-c2ccc(Cl)cc2C(c2c(F)cccc2OC)=NC3)ccc1C(=O)O | 39.8% [middle of 5 runs] | 41.2% [middle of 5 runs] | – | – | – | – | – | – | – | – | 50.2% [middle of 5 runs] | < 0.0316 µM | 45.3% [middle of 5 runs] | 47.9% [middle of 5 runs] | 46.5% [middle of 5 runs]
COc1cc(OC)cc(N(CCNC(C)C)c2ccc3ncc(-c4cnn(C)c4)nc3c2)c1 | 99.1% [middle of 5 runs] | 0.56% [middle of 5 runs] | – | – | – | – | – | – | – | – | 94.3% [middle of 5 runs] | 6.06 µM [middle of 4 runs] | 105% [middle of 5 runs] | 123% [middle of 5 runs] | –
COc1cc2nccc(Oc3ccc(NC(=O)C4(C(=O)Nc5ccc(F)cc5)CC4)cc3)c2cc1OC | 98.8% [middle of 4 runs] | 39.7% [middle of 5 runs] | – | – | – | – | – | – | – | – | 99.7% [middle of 5 runs] | – | 103% [middle of 5 runs] | 109% [middle of 5 runs] | –
Cn1nccc1Nc1nccc(-c2cc3c(s2)C(C)(C)N(CCN2CCOCC2)C3=O)n1 | 86.3% [middle of 5 runs] | 22.6% [middle of 5 runs] | – | – | – | – | – | – | – | – | 91.2% [middle of 5 runs] | 902 nM [middle of 5 runs] | 60.6% [middle of 5 runs] | 51% [middle of 5 runs] | 32.7% [middle of 5 runs]
Cn1ncnc1[C@H]1c2n[nH]c(=O)c3cc(F)cc(c23)N[C@@H]1c1ccc(F)cc1 | 82.8% [middle of 5 runs] | – | – | – | – | – | 104% [middle of 5 runs] | 104% [middle of 5 runs] | 97.1% [middle of 5 runs] | 90.9% [middle of 5 runs] | 90% [middle of 5 runs] | > 0.1 µM | – | – | –
O=C(c1cc(Cc2n[nH]c(=O)c3ccccc23)ccc1F)N1CCN(C(=O)C2CC2)CC1 | 95.1% [middle of 5 runs] | 61% [middle of 5 runs] | – | – | – | – | – | – | – | – | 99% [middle of 5 runs] | > 10 µM | 93.8% [middle of 5 runs] | 94.8% [middle of 5 runs] | 89.3% [middle of 5 runs]
